Assay results published in ChEMBL document CHEMBL1201862, “PubChem BioAssay data set” (2004).
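Each compound was tested at five concentrations against cells in 96-well plates for 48 hours. The concentration for 50% growth inhibition is given as GI50.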 Active and inactive are the calls of the source. No stated cut-off is given here; in the data, active = GI50 up to about 1.1 µM and inactive = higher.

Experiments:
Assay in all cases: NCI-60 cell line screen, 48 h
UACC-62 = test system: UACC-62
SK-MEL-5 = test system: SK-MEL-5
SK-MEL-28 = test system: SK-MEL-28
HCC 2998 = test system: HCC 2998
NCI-H522 = test system: NCI-H522
RPMI-8226 = test system: RPMI-8226
HCT-116 = test system: HCT-116
NCI-H226 = test system: NCI-H226
U-251 = test system: U-251
OVCAR-3 = test system: OVCAR-3
SNB-19 = test system: SNB-19
A498 = test system: A498
KM-20L2 = test system: KM-20L2
K562 = test system: K562
Malme-3M = test system: Malme-3M
CCRF-CEM = test system: CCRF-CEM
OVCAR-4 = test system: OVCAR-4
NCI-H23 = test system: NCI-H23
MDA-MB-435 = test system: MDA-MB-435
NCI/ADR-RES = test system: NCI/ADR-RES

## N/C(=N\O)N/N=C\c1c2ccccc2c(Cl)c2ccccc12
UACC-62
  GI50: 1.92 µM (inactive)
SK-MEL-5
  GI50: 5 µM (inactive)
SK-MEL-28
  GI50: 13.5 µM (inactive)
HCC 2998
  GI50: 3.66 µM (inactive)
NCI-H522
  GI50: 3.8 µM (inactive)
RPMI-8226
  GI50: 3.3 µM (inactive)
HCT-116
  GI50: 3.66 µM (inactive)
NCI-H226
  GI50: 2.13 µM (inactive)
U-251
  GI50: 7.5 µM (inactive)
OVCAR-3
  GI50: 3.47 µM (inactive)
SNB-19
  GI50: 11.9 µM (inactive)
A498
  GI50: 13.5 µM (inactive)
KM-20L2
  GI50: 2.02 µM (inactive)
K562
  GI50: 3.72 µM (inactive)
Malme-3M
  GI50: 4.6 µM (inactive)
CCRF-CEM
  GI50: 5.77 µM (inactive)
OVCAR-4
  GI50: 3.78 µM (inactive)
NCI-H23
  GI50: 5.04 µM (inactive)

## O=C1O/C(=C(/c2ccc(Cl)cc2)c2nc3ccccc3[nH]2)C(O)=C1c1ccc(Cl)cc1
UACC-62
  GI50: 2.21 µM (inactive)
SK-MEL-28
  GI50: 3.85 µM (inactive)
HCC 2998
  GI50: 2.83 µM (inactive)
NCI-H522
  GI50: 0.944 µM (active)
RPMI-8226
  GI50: 2.28 µM (inactive)
HCT-116
  GI50: 1.93 µM (inactive)
NCI-H226
  GI50: 2.1 µM (inactive)
U-251
  GI50: 2.56 µM (inactive)
OVCAR-3
  GI50: 2.38 µM (inactive)
SNB-19
  GI50: 2.93 µM (inactive)
A498
  GI50: 2.47 µM (inactive)
KM-20L2
  GI50: 2.38 µM (inactive)
K562
  GI50: 1.85 µM (inactive)
Malme-3M
  GI50: 2 µM (inactive)
CCRF-CEM
  GI50: 1.89 µM (inactive)
OVCAR-4
  GI50: 2.4 µM (inactive)
NCI-H23
  GI50: 1.38 µM (inactive)

## CCOC(=O)/C(=C\c1ccc(O)c(OC)c1)C(=O)c1ccccc1
UACC-62
  GI50: 13.7 µM (inactive)
SK-MEL-5
  GI50: 13.3 µM (inactive)
SK-MEL-28
  GI50: 9.75 µM (inactive)
HCC 2998
  GI50: 19.6 µM (inactive)
NCI-H522
  GI50: 7.5 µM (inactive)
RPMI-8226
  GI50: 9.77 µM (inactive)
HCT-116
  GI50: 10.6 µM (inactive)
NCI-H226
  GI50: 23.2 µM (inactive)
U-251
  GI50: 13.5 µM (inactive)
OVCAR-3
  GI50: 26.9 µM (inactive)
SNB-19
  GI50: 16.5 µM (inactive)
A498
  GI50: 17 µM (inactive)
KM-20L2
  GI50: > 41.7 µM (inactive)
K562
  GI50: 9.59 µM (inactive)
Malme-3M
  GI50: 18.6 µM (inactive)
CCRF-CEM
  GI50: 7.5 µM (inactive)
OVCAR-4
  GI50: 13.9 µM (inactive)
NCI-H23
  GI50: 8.22 µM (inactive)

## COc1ccc(C(=O)O/N=C2/CCC/C2=C\c2ccccc2)cc1
UACC-62
  GI50: > 100 µM (inactive)
SK-MEL-5
  GI50: > 100 µM (inactive)
SK-MEL-28
  GI50: > 100 µM (inactive)
HCC 2998
  GI50: > 100 µM (inactive)
NCI-H522
  GI50: 97.3 µM (inactive)
RPMI-8226
  GI50: > 100 µM (inactive)
HCT-116
  GI50: > 100 µM (inactive)
NCI-H226
  GI50: > 100 µM (inactive)
U-251
  GI50: > 70.3 µM (inactive)
OVCAR-3
  GI50: > 100 µM (inactive)
SNB-19
  GI50: > 100 µM (inactive)
A498
  GI50: > 100 µM (inactive)
KM-20L2
  GI50: > 100 µM (inactive)
K562
  GI50: > 100 µM (inactive)
Malme-3M
  GI50: > 100 µM (inactive)
CCRF-CEM
  GI50: > 100 µM (inactive)
OVCAR-4
  GI50: > 66.1 µM (inactive)
NCI-H23
  GI50: > 100 µM (inactive)

## C=CCNC(=O)ON1C(=O)CCC1=O
UACC-62
  GI50: > 100 µM (inactive)
SK-MEL-28
  GI50: > 100 µM (inactive)
HCC 2998
  GI50: > 100 µM (inactive)
NCI-H522
  GI50: 31.8 µM (inactive)
RPMI-8226
  GI50: > 100 µM (inactive)
HCT-116
  GI50: > 100 µM (inactive)
U-251
  GI50: > 100 µM (inactive)
OVCAR-3
  GI50: > 100 µM (inactive)
SNB-19
  GI50: > 100 µM (inactive)
A498
  GI50: > 100 µM (inactive)
KM-20L2
  GI50: > 100 µM (inactive)
K562
  GI50: > 100 µM (inactive)
Malme-3M
  GI50: > 100 µM (inactive)
CCRF-CEM
  GI50: > 100 µM (inactive)
OVCAR-4
  GI50: > 100 µM (inactive)
NCI-H23
  GI50: > 100 µM (inactive)

## C/C(CC(=O)NCCc1ccccc1)=N\NS(=O)(=O)c1ccc(C)cc1
UACC-62
  GI50: > 100 µM (inactive)
SK-MEL-5
  GI50: > 100 µM (inactive)
SK-MEL-28
  GI50: > 100 µM (inactive)
HCC 2998
  GI50: > 100 µM (inactive)
NCI-H522
  GI50: > 100 µM (inactive)
RPMI-8226
  GI50: > 100 µM (inactive)
HCT-116
  GI50: > 100 µM (inactive)
NCI-H226
  GI50: > 100 µM (inactive)
U-251
  GI50: > 100 µM (inactive)
OVCAR-3
  GI50: > 100 µM (inactive)
A498
  GI50: > 100 µM (inactive)
KM-20L2
  GI50: > 100 µM (inactive)
K562
  GI50: > 100 µM (inactive)
Malme-3M
  GI50: > 100 µM (inactive)
CCRF-CEM
  GI50: > 100 µM (inactive)
NCI-H23
  GI50: > 100 µM (inactive)

## C/C(C=O)=C1\C(O)C[C@]1(C)C1CC(C)(C)CC1O (stereo not given in full)
SK-MEL-5
  GI50: > 100 µM (inactive)
SK-MEL-28
  GI50: > 100 µM (inactive)
HCC 2998
  GI50: > 100 µM (inactive)
NCI-H522
  GI50: 32 µM (inactive)
RPMI-8226
  GI50: 42.3 µM (inactive)
HCT-116
  GI50: 72.9 µM (inactive)
NCI-H226
  GI50: > 100 µM (inactive)
U-251
  GI50: > 100 µM (inactive)
OVCAR-3
  GI50: 28.8 µM (inactive)
SNB-19
  GI50: > 100 µM (inactive)
A498
  GI50: > 100 µM (inactive)
KM-20L2
  GI50: > 100 µM (inactive)
K562
  GI50: 54.6 µM (inactive)
Malme-3M
  GI50: > 100 µM (inactive)
CCRF-CEM
  GI50: 26.7 µM (inactive)
OVCAR-4
  GI50: 35.7 µM (inactive)
NCI-H23
  GI50: > 100 µM (inactive)

## Oc1ncc(N(CCCl)CCCl)c(O)n1 [URACIL MUSTARD]
MDA-MB-435
  GI50: 64 µM (inactive)
UACC-62
  GI50: 6.7 µM (inactive)
SK-MEL-5
  GI50: 41.8 µM (inactive)
SK-MEL-28
  GI50: 67.8 µM (inactive)
HCC 2998
  GI50: 62.7 µM (inactive)
NCI-H522
  GI50: 14.3 µM (inactive)
RPMI-8226
  GI50: 41.6 µM (inactive)
HCT-116
  GI50: 49 µM (inactive)
NCI-H226
  GI50: 48.2 µM (inactive)
NCI/ADR-RES
  GI50: 23.7 µM (inactive)
U-251
  GI50: 15.2 µM (inactive)
OVCAR-3
  GI50: 74.6 µM (inactive)
SNB-19
  GI50: 42.1 µM (inactive)
A498
  GI50: 69.5 µM (inactive)
KM-20L2
  GI50: 69.5 µM (inactive)
K562
  GI50: 42.5 µM (inactive)
Malme-3M
  GI50: 32.8 µM (inactive)
CCRF-CEM
  GI50: 2.1 µM (inactive)
OVCAR-4
  GI50: 83 µM (inactive)
NCI-H23
  GI50: 15 µM (inactive)
